According to ChEMBL document CHEMBL1126225, “Potential mechanism-based inhibitors of proteolytic enzymes” (Bioorg Med Chem Lett, 1992):

What was measured:
[1] = target: T1, Neutrophil elastase (Homo sapiens) (UniProt P08246); experiment: Compound was tested for the inhibition of human leukocyte elastase (HLE) by ratio of Kobs to that of KI
T1 sequence (whole entry): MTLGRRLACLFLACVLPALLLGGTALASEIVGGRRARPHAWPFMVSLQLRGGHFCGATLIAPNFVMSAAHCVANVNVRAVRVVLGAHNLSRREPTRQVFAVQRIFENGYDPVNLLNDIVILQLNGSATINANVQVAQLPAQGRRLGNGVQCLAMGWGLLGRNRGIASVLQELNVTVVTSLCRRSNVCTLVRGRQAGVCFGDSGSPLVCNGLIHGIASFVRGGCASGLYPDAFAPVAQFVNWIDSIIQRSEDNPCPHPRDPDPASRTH

[2] = target: T1, Neutrophil elastase (Homo sapiens); experiment: Compound was tested for the inhibition of human leukocyte elastase (HLE) by ratio of Kobs to that of KI; Insoluble
Neutrophil elastase = target: T2, Neutrophil elastase (Homo sapiens, UniProt P08246); experiment: Compound was tested for the inhibition of human leukocyte elastase (HLE)
T2 sequence (P08246 whole entry): T1 sequence (whole entry)

SMILES | K obs / 1 [1] | further results
CC(C)C[C@H](NC(=O)OCc1ccccc1)C(=O)CN1C(=O)CC(Cc2ccccc2)C1=O (stereo partly drawn) | 3 M⁻¹ s⁻¹ | –
CC(C)C[C@H](NC(=O)OCc1ccccc1)C(=O)CN1C(=O)c2ccccc2C1=O | – | K obs / 1 [2]: Insoluble
CC(C)C[C@H](N)C(=O)CN1C(=O)c2ccccc2C1=O | – | Ki (Neutrophil elastase): 17.5 µM
CC(C)Cc1ccc(C(C)C(=O)CN2C(=O)CC(CC(C)C)C2=O)cc1 (stereo not drawn) | 16 M⁻¹ s⁻¹ | –
CC(C)C[C@H](NC(=O)OCc1ccccc1)C(=O)CN1C(=O)c2ccccc2S1(=O)=O | 420 M⁻¹ s⁻¹ | –
CC(C)Cc1ccc(C(C)C(=O)CN2C(=O)CC(Cc3ccccc3)C2=O)cc1 (stereo not drawn) | 45 M⁻¹ s⁻¹ | –

Now from value to compound, other results behind:

K obs / 1 [1] | SMILES | further results
4 M⁻¹ s⁻¹ | O=C(CN1C(=O)c2ccccc2S1(=O)=O)OCc1ccccc1 | –
160 M⁻¹ s⁻¹ | CC(C)Cc1ccc(C(C)C(=O)CN2C(=O)c3ccccc3S2(=O)=O)cc1 (stereo not drawn) | –
